Results published in patent publication JPH07291935A, “スピロ化合物、その製造法および剤” (Takeda Chemical Industries Ltd, priority 1994, dated 1995).
Like-named read-outs stand apart in the source and are kept apart here.

Assays:
[1] = test system: 45Ca2+ uptake [45Ca2+取り込み]; experiment: 45Ca2+ uptake inhibition (veratrine-stimulated); type: biochemical; conditions: 10 μM; rat cerebral cortex crude synaptosomes; veratrine 30 μM; 37℃, 10 min
[2] = test system: serotonin (5-HT) uptake [セロトニン(5−HT)の取り込み]; experiment: serotonin (5-HT) uptake inhibition; type: biochemical; conditions: rat whole brain preparation, 3H-5-HT 10 nM, 37℃, 5 min
[3] = test system: norepinephrine (NE) uptake [ノルエピネフリン(NE)の取り込み]; experiment: norepinephrine (NE) uptake inhibition; type: biochemical; conditions: rat cerebral cortex, 3H-NE as substrate
[4] = target: T1, type B monoamine oxidase (MAO-B) [B型モノアミン酸化酵素(MAO−B)] (Rattus norvegicus, UniProt P19643); experiment: biochemical
T1 sequence (P19643 1-520): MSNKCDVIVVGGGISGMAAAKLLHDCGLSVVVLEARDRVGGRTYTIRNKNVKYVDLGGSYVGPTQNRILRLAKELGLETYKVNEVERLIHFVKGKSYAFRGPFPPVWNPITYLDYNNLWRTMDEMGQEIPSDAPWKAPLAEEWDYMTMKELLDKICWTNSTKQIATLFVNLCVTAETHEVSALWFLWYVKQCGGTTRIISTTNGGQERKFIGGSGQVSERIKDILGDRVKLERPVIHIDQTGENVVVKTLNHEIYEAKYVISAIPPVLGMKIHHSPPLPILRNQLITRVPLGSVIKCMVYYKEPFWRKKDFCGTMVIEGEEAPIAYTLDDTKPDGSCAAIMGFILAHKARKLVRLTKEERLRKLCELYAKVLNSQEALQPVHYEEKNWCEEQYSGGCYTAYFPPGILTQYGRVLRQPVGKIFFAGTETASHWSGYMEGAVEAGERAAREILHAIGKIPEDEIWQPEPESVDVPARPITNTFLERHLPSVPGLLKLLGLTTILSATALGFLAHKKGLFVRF

[5] = MAO-B, rat whole brain homogenate, 14C-phenylethylamine 10 μM, 37℃, 5 min, read-out: IC50

| Structure (SMILES) | % inhibition rate (45Ca uptake) [1] [%] | IC50 [2] [nM] | IC50 [3] [nM] | IC50 [4, 5] [nM] | IC50 [4] [nM] |
| --- | --- | --- | --- | --- | --- |
| COc1ccc2c(c1)CCC1(CCCCN1CCCc1ccccc1)C2 (centres unmarked) [実施例5−9, 3,4−ジヒドロ−6−メトキシ−1′−(3−フェニルプロピル)スピロ〔ナフタレン−2(1H),2′−ピペリジン〕 塩酸塩] | 92 |  |  |  |  |
| COc1ccc2c(c1)CCC1(CCCCN1CCOc1ccccc1)C2 (centres unmarked) [実施例5−10, 3,4−ジヒドロ−6−メトキシ−1′−(2−フェノキシエチル)スピロ〔ナフタレン−2(1H),2′−ピペリジン〕 塩酸塩] | 88 | 9.6 | 830 |  |  |
| COc1ccc2c(c1)CCC1(CCCCN1CCCCN1C(=O)c3ccccc3C1=O)C2 (centres unmarked) [実施例5−11, 3,4−ジヒドロ−6−メトキシ−1′−(4−フタルイミドブチル)スピロ〔ナフタレン−2(1H),2′−ピペリジン〕 塩酸塩] |  | 4.5 | 500 |  |  |
| COc1ccc2c(c1)CCC1(CCCCN1CCCC1CCN(Cc3ccccc3)CC1)C2 (centres unmarked) [実施例5−14, 3,4−ジヒドロ−6−メトキシ−1′−〔3−(1−フェニルメチルピペリジン−4−イル)プロピル〕スピロ〔ナフタレン−2(1H),2′−ピペリジン〕 2塩酸塩] | 74 | 11 | 180 |  |  |
| COc1cccc(N2CCN(CCN3CCCCC34CCc3cc(OC)ccc3C4)CC2)c1 (centres unmarked) [実施例7−1, 3,4−ジヒドロ−6−メトキシ−1’−〔2−(4−(3−メトキシフェニル)ピペラジン−1−イル)エチル〕スピロ〔ナフタレン−2(1H),2’−ピペリジン〕 2塩酸塩] | 90 | 22 | 4770 |  |  |
| COc1ccc2c(c1)CCC1(CCCCN1CCN1CCN(c3ccccc3Cl)CC1)C2 (centres unmarked) [実施例7−3, 1′−〔2−(4−(2−クロロフェニル)ピペラジン−1−イル)エチル〕−3,4−ジヒドロ−6−メトキシスピロ〔ナフタレン−2(1H),2′−ピペリジン〕 2塩酸塩] | 95 |  |  |  |  |
| COc1ccc2c(c1)CCC1(CCCCN1CCN1CCN(c3ccc(F)cc3)CC1)C2 (centres unmarked) [実施例7−5, 1′−〔2−(4−(4−フルオロフェニル)ピペラジン−1−イル)エチル〕−3,4−ジヒドロ−6−メトキシスピロ〔ナフタレン−2(1H),2′−ピペリジン〕 2塩酸塩] | 87 | 30 | 3350 |  |  |
| COc1ccc2c(c1)CCC1(CCCCN1CCN1CCN(c3cccc(C(F)(F)F)c3)CC1)C2 (centres unmarked) [実施例7−6, 1′−〔2−(4−(3−トリフルオロメチルフェニル)ピペラジン−1−イル)エチル〕−3,4−ジヒドロ−6−メトキシスピロ〔ナフタレン−2(1H),2′−ピペリジン〕 2塩酸塩] | 106 |  |  |  |  |
| COc1ccc2c(c1)CCC1(CCCCN1CCN1CCC(c3ccccc3)CC1)C2 (centres unmarked) [実施例7−9, 3,4−ジヒドロ−6−メトキシ−1′−〔2−(4−フェニルピペリジン−1−イル)エチル〕スピロ〔ナフタレン−2(1H),2′−ピペリジン〕 2塩酸塩] | 109 |  |  |  |  |
| CCCN1CCCCC12CCc1cc(OCc3ccccc3)ccc1C2 (centres unmarked) [実施例9−1, 3,4−ジヒドロ−6−フェニルメトキシ−1’−プロピルスピロ〔ナフタレン−2(1H),2’−ピペリジン〕 塩酸塩] |  |  |  | 280 |  |
| CCCN1CCCCC12CCc1cc(OCc3ccccc3Cl)ccc1C2 (centres unmarked) [実施例9−6, 6−(2−クロロフェニルメトキシ)−3,4−ジヒドロ−1′−プロピルスピロ〔ナフタレン−2(1H),2′−ピペリジン〕 塩酸塩] |  |  |  | 2510 |  |
| CCCN1CCCCC12CCc1cc(OCc3cccc(Cl)c3)ccc1C2 (centres unmarked) [実施例9−7, 6−(3−クロロフェニルメトキシ)−3,4−ジヒドロ−1′−プロピルスピロ〔ナフタレン−2(1H),2′−ピペリジン〕 塩酸塩] |  | 700 | 59 | 1630 |  |
| CCCN1CCCCC12CCc1cc(OCc3ccc(Cl)cc3)ccc1C2 (centres unmarked) [実施例9−8, 6−(4−クロロフェニルメトキシ)−3,4−ジヒドロ−1′−プロピルスピロ〔ナフタレン−2(1H),2′−ピペリジン〕 塩酸塩] |  | 180 | 35 |  |  |
| CCCN1CCCCC12CCc1cc(OCc3cccc(C#N)c3)ccc1C2 (centres unmarked) [実施例9−9, 6−(3−シアノフェニルメトキシ)−3,4−ジヒドロ−1′−プロピルスピロ〔ナフタレン−2(1H),2′−ピペリジン〕 塩酸塩] |  | 280 | 62 |  |  |
| CCCN1CCCCC12CCc1cc(OCCc3ccccc3)ccc1C2 (centres unmarked) [実施例9−16, 3,4−ジヒドロ−6−(2−フェニルエトキシ)−1′−プロピルスピロ〔ナフタレン−2(1H),2′−ピペリジン〕 2塩酸塩] |  |  |  | 590 |  |
| CCCN1CCCCC12CCc1cc(OCc3ccccc3C)ccc1C2 (centres unmarked) [実施例9−18, 3,4−ジヒドロ−6−(2−メチルフェニルメトキシ)−1′−プロピルスピロ〔ナフタレン−2(1H),2′−ピペリジン〕 塩酸塩] |  |  |  | 1490 |  |
| CCCN1CCCCC12CCc1cc(OCc3ccccc3F)ccc1C2 (centres unmarked) [実施例9−19, 6−(2−フルオロフェニルメトキシ)−3,4−ジヒドロ−1′−プロピルスピロ〔ナフタレン−2(1H),2′−ピペリジン〕 塩酸塩] |  | 800 | 90 | 890 |  |
| CCCN1CCCCC12CCc1cc(OCc3ccccc3C#N)ccc1C2 (centres unmarked) [実施例9−20, 6−(2−シアノフェニルメトキシ)−3,4−ジヒドロ−1′−プロピルスピロ〔ナフタレン−2(1H),2′−ピペリジン〕 塩酸塩] |  | 320 | 54 |  |  |
| CCCN1CCCCC12CCc1cc(OCc3ccc(F)cc3)ccc1C2 (centres unmarked) [実施例9−21, 6−(4−フルオロフェニルメトキシ)−3,4−ジヒドロ−1′−プロピルスピロ〔ナフタレン−2(1H),2′−ピペリジン〕 塩酸塩] |  | 340 | 97 | 680 |  |
| CCCN1CCCCC12CCc1cc(OCc3ccc(Cl)cc3Cl)ccc1C2 (centres unmarked) [実施例9−22, 6−(2,4−ジクロロフェニルメトキシ)−3,4−ジヒドロ−1′−プロピルスピロ〔ナフタレン−2(1H),2′−ピペリジン〕 塩酸塩] |  | 190 | 67 |  |  |
| CCCN1CCCCC12CCc1cc(OCc3ccccc3OC)ccc1C2 (centres unmarked) [実施例9−23, 3,4−ジヒドロ−6−(2−メトキシフェニルメトキシ)−1′−プロピルスピロ〔ナフタレン−2(1H),2′−ピペリジン〕 塩酸塩] |  |  |  | 2830 |  |
| NC(=O)CN1CCCCC12CCc1cc(OCc3ccc(F)cc3)ccc1C2 (centres unmarked) [実施例9−32, {6−(4−フルオロフェニルメトキシ−3,4−ジヒドロスピロ〔ナフタレン−2(1H),2′−ピペリジン〕}−1′−イルアセトアミド 塩酸塩] |  |  |  | 530 |  |
| CCCN1CCCCC12CCc1cc(OCc3ccsc3)ccc1C2 (centres unmarked) [実施例9−45, 3,4−ジヒドロ−1′−プロピル−6−(3−チエニルメトキシ)スピロ〔ナフタレン−2(1H),2′−ピペリジン〕 塩酸塩] |  |  |  |  | 66 |
| COc1ccc2c(c1)CC[C@@]1(CCCCN1CCN1CCN(c3cccc(C(F)(F)F)c3)CC1)C2 [実施例30−2, (S)−(−)−1’−〔2−4−(3−トリフルオロメチルフェニル)ピペラジン−1−イル)エチル〕−3,4−ジヒドロ−6−メトキシスピロ〔ナフタレン−2(1H),2’−ピペリジン〕 2塩酸塩] |  | 9.5 | 280 |  |  |
